Experimental data published in US8628771B2, “CA IX-specific inhibitors” (Institute of Virology Slovak Academy of Sciences, priority 2002, dated 2014).
Where a name gives a salt, the structure may show the parent alone. Read-outs that look alike come from different tables or passages of the source.

Tests used:
MDCK-CA IX cells = assay: Extracellular pH (pHe) of sulfonamide-treated MDCK-CA IX cells; type: cell-based, canine; conditions: 48 hours
Protocol: To maintain the standard conditions, the cells were always plated in 3 ml of culture medium at a density of 0.8-1×10^6 per 6 cm dish 24 hours before the transfer to hypoxia (2% O2 and 5% CO2 balanced with N2) generated in a Napco 7000 incubator. Parallel normoxic dishes were incubated in air with 5% CO2.
Compound 6 sulfonamide [4-(2-aminoethyl)-benzenesulfonamide] was from Sigma-Aldrich. […] The sulfonamides were dissolved in PBS with 20% DMSO at 100 mM concentration and diluted in a culture medium to a required final concentration just before their addition to cells. The cells were incubated for 48 hours in hypoxia and normoxia, respectively, the pH of the culture medium was measured and the binding of the FITC-labeled Compound 92 to living cells, washed three times with PBS, was viewed by a Nikon E400 epifluorescence microscope.

hCA IX = hCA IX (Homo sapiens, UniProt Q16790); assay: CA CO2 hydrase activity assay, tumor-associated isozyme hCA IX
Protocol: An SX.18MV-R Applied Photophysics stopped-flow instrument has been used for assaying the CA CO2 hydration activity assays [44]. […] Inhibitor and enzyme solutions were preincubated together for 10 min at room temperature prior to assay, in order to allow for the formation of the E-I complex.

hCA I = biological target: T1, hCA I (Homo sapiens, UniProt P00915); assay: CA esterase activity assay, isozyme hCA I; type: biochemical; conditions: Table 3; human (cloned) isozymes, esterase assay method; read-out: KI hCA I
T1 construct: made in house; host or cells: Escherichia coli BL21 (DE3)
T1 sequence (P00915 whole entry): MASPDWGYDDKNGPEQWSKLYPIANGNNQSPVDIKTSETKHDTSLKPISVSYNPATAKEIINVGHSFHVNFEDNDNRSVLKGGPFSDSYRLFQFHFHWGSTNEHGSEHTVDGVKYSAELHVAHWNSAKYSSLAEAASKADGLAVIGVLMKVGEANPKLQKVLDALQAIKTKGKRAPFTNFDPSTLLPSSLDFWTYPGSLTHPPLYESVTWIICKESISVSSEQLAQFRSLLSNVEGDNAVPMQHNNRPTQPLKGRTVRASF

human red cells = conditions: for [sulfonamide] in red blood cells, EI / [sulfonamide] in red blood cells, ES / [sulfonamide] in red blood cells, HPLC: human, 2 mM, pH 7.4
hCA II = biological target: T2, hCA II (Homo sapiens, UniProt P00918); assay: CA esterase activity assay, isozyme hCA II; type: biochemical
T2 construct: made in house; host or cells: Escherichia coli BL21 (DE3)

bCA IV = biological target: T3, bCA IV (Bos taurus, UniProt Q95323); assay: CA esterase activity assay, isozyme bCA IV; type: biochemical, bovine; conditions: Table 3; from bovine lung microsomes, esterase assay method; read-out: KI bCA IV
T3 construct: CA IV was isolated from bovine lung microsomes as described by Maren et al; from tissue; host or cells: bovine lung microsomes
T3 sequence (Q95323 19-284): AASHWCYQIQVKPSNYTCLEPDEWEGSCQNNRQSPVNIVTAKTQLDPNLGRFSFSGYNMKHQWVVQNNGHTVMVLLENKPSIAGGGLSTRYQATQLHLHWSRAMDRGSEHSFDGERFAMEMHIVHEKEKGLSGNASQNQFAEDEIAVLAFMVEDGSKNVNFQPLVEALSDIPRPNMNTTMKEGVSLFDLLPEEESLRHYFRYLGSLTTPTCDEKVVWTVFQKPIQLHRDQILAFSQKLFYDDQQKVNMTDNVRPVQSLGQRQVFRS

[1] = read-out: KI hCA IX, Table 3, catalytic domain of the human, cloned isozyme, CO2 hydrase assay method
[2] = Table 3, human (cloned) isozymes, esterase assay method, read-out: KI hCA II

Compound: Cc1cc(C)[n+](-c2ccc(S(=O)(=O)Nc3nnc(S(N)(=O)=O)s3)cc2)c(C)c1 (as salt: perchlorate) [Compound 71, 1-N-[5-Sulfamoyl-1,3,4-thiadiazol-2-yl-(aminosulfonyl-4-phenyl)]-2,4,6-trimethyl-pyridinium perchlorate]
- melting point: > 300 °C

Compound: Cc1cc(C(C)C)[n+](-c2ccc(S(=O)(=O)Nc3nnc(S(N)(=O)=O)s3)cc2)c(C(C)C)c1 (as salt: perchlorate) [Compound 73, 1-N-[5-Sulfamoyl-1,3,4-thiadiazol-2-yl-(aminosulfonyl-4-phenyl)]-2,6-di-iso-propyl-4-methylpyridinium perchlorate]
- melting point: 278 to 279 °C

Compound: Cc1cc(-c2ccccc2)cc(C)[n+]1-c1ccc(S(=O)(=O)Nc2nnc(S(N)(=O)=O)s2)cc1 (as salt: perchlorate) [Compound 75, 1-N-[5-Sulfamoyl-1,3,4-thiadiazol-2-yl-(aminosulfonyl-4-phenyl)]-2,6-dimethyl-4-phenylpyridinium perchlorate]
- melting point: > 300 °C

Compound: CCc1cc(-c2ccccc2)cc(CC)[n+]1-c1ccc(S(=O)(=O)Nc2nnc(S(N)(=O)=O)s2)cc1 (as salt: perchlorate) [Compound 76, 1-N-[5-Sulfamoyl-1,3,4-thiadiazol-2-yl-(aminosulfonyl-4-phenyl)]-2,6-diethyl-4-phenylpyridinium perchlorate]
- melting point: 267 to 268 °C

Compound: CCCc1cc(-c2ccccc2)cc(CCC)[n+]1-c1ccc(S(=O)(=O)Nc2nnc(S(N)(=O)=O)s2)cc1 (as salt: perchlorate) [Compound 77, 1-N-[5-Sulfamoyl-1,3,4-thiadiazol-2-yl-(aminosulfonyl-4-phenyl)]-2,6-di-n-propyl-4-phenylpyridinium perchlorate]
- melting point: 235 to 237 °C

Compound: CC(C)c1cc(-c2ccccc2)cc(C(C)C)[n+]1-c1ccc(S(=O)(=O)Nc2nnc(S(N)(=O)=O)s2)cc1 (as salt: perchlorate) [Compound 79, 1-N-[5-Sulfamoyl-1,3,4-thiadiazol-2-yl-(aminosulfonyl-4-phenyl)]-2,6-di-isopropyl-4-phenylpyridinium perchlorate]
- melting point: 278 to 279 °C

Compound: Cc1cc(-c2ccccc2)cc(-c2ccccc2)[n+]1-c1ccc(S(=O)(=O)Nc2nnc(S(N)(=O)=O)s2)cc1 (as salt: perchlorate) [Compound 80, 1-N-[5-Sulfamoyl-1,3,4-thiadiazol-2-yl-(aminosulfonyl-4-phenyl)]-2-methyl-4,6-diphenylpyridinium perchlorate]
- melting point: 298 to 299 °C

Compound: CCc1cc(-c2ccccc2)cc(-c2ccccc2)[n+]1-c1ccc(S(=O)(=O)Nc2nnc(S(N)(=O)=O)s2)cc1 (as salt: perchlorate) [Compound 81, 1-N-[5-Sulfamoyl-1,3,4-thiadiazol-2-yl-(aminosulfonyl-4-phenyl)]-2-ethyl-4,6-diphenylpyridinium perchlorate]
- melting point: 254 to 255 °C

Compound: CCCc1cc(-c2ccccc2)cc(-c2ccccc2)[n+]1-c1ccc(S(=O)(=O)Nc2nnc(S(N)(=O)=O)s2)cc1 (as salt: perchlorate) [Compound 82, 1-N-[5-Sulfamoyl-1,3,4-thiadiazol-2-yl-(aminosulfonyl-4-phenyl)]-2-n-propyl-4,6-diphenylpyridinium perchlorate]
- melting point: 214 to 215 °C

Compound: CC(C)c1cc(-c2ccccc2)cc(-c2ccccc2)[n+]1-c1ccc(S(=O)(=O)Nc2nnc(S(N)(=O)=O)s2)cc1 (as salt: perchlorate) [Compound 83, 1-N-[5-Sulfamoyl-1,3,4-thiadiazol-2-yl-(aminosulfonyl-4-phenyl)]-2-iso-propyl-4,6-diphenylpyridinium perchlorate]
- melting point: 186 to 188 °C

Compound: CCCCc1cc(-c2ccccc2)cc(-c2ccccc2)[n+]1-c1ccc(S(=O)(=O)Nc2nnc(S(N)(=O)=O)s2)cc1 (as salt: perchlorate) [Compound 84, 1-N-[5-Sulfamoyl-1,3,4-thiadiazol-2-yl-(aminosulfonyl-4-phenyl)]-2-n-butyl-4,6-diphenylpyridinium perchlorate]
- melting point: 241 to 243 °C

Compound: CC(C)(C)c1cc(-c2ccccc2)cc(-c2ccccc2)[n+]1-c1ccc(S(=O)(=O)Nc2nnc(S(N)(=O)=O)s2)cc1 (as salt: perchlorate) [Compound 85, 1-N-[5-Sulfamoyl-1,3,4-thiadiazol-2-yl-(aminosulfonyl-4-phenyl)]-2-tert-butyl-4,6-diphenylpyridinium perchlorate]
- melting point: 203 to 205 °C

Compound: NS(=O)(=O)c1nnc(NS(=O)(=O)c2ccc(-[n+]3c(-c4ccccc4)cc(-c4ccccc4)cc3-c3ccccc3)cc2)s1 (as salt: perchlorate) [Compound 87, 1-N-[5-Sulfamoyl-1,3,4-thiadiazol-2-yl-(aminosulfonyl-4-phenyl)]-2,4,6-triphenyl-pyridinium perchlorate]
- melting point: > 300 °C

Compound: NS(=O)(=O)c1nnc(NS(=O)(=O)c2ccc(-[n+]3c(-c4ccccc4)cccc3-c3ccccc3)cc2)s1 (as salt: perchlorate) [Compound 88, 1-N-[5-Sulfamoyl-1,3,4-thiadiazol-2-yl-(aminosulfonyl-4-phenyl)]-2,6-diphenylpyridinium perchlorate]
- melting point: 218 to 220 °C

Compound: Cc1cc(C)[n+](-c2ccc(S(=O)(=O)Nc3nnc(S(N)(=O)=O)s3)cc2)c(C)c1C (as salt: perchlorate) [Compound 89, 1-N-[5-Sulfamoyl-1,3,4-thiadiazol-2-yl-(aminosulfonyl-4-phenyl)]-2,3,4,6-tetramethylpyridinium perchlorate]
- melting point: > 300 °C

Compound: NCCc1ccc(S(N)(=O)=O)cc1 [Compound 6, 4-(2-aminoethyl)-benzenesulfonamide]
- effect on extracellular acidification (MDCK-CA IX cells; hypoxia (2% O2)): able to reduce the extracellular acidification
- effect on the normoxic pHe (MDCK-CA IX cells; normoxia): negligible

Compound: Cc1cc(C)[n+](-c2ccc(S(=O)(=O)Nc3nnc(S(N)(=O)=O)s3)cc2)c(C)c1 [Compound 71, 1-N-[5-Sulfamoyl-1,3,4-thiadiazol-2-yl-(aminosulfonyl-4-phenyl)]-2,4,6-trimethyl-pyridinium perchlorate]
- Ki (hCA IX): 3 to 9 nM
- times more effective than benzolamide in inhibiting CA IX (hCA IX; ratio of KI values): ~13
- Ki (hCA IX; [1]): 3 nM
- Ki (hCA I): 4 nM
- amount detected within the blood red cells (membrane penetration) (human red cells): detected only in very small amounts
- [sulfonamide] in red blood cells, EI (human red cells; 30 min): 0.5 µM
- [sulfonamide] in red blood cells, ES (human red cells; 30 min): 0.5 µM
- [sulfonamide] in red blood cells, HPLC (human red cells; 30 min): 0.3 µM
- [sulfonamide] in red blood cells, EI (human red cells; 60 min): 0.3 µM
- [sulfonamide] in red blood cells, ES (human red cells; 60 min): 0.5 µM
- [sulfonamide] in red blood cells, HPLC (human red cells; 60 min): 0.4 µM
- Ki (hCA II; [2]): 0.26 nM
- Ki (hCA II; read-out: KI against CA II): 0.2 to 1.61 nM
- Ki (bCA IV): 2.1 nM

Compound: CCc1cc(-c2ccccc2)cc(CC)[n+]1-c1ccc(S(=O)(=O)Nc2nnc(S(N)(=O)=O)s2)cc1 [Compound 76, 1-N-[5-Sulfamoyl-1,3,4-thiadiazol-2-yl-(aminosulfonyl-4-phenyl)]-2,6-diethyl-4-phenylpyridinium perchlorate]
- Ki (hCA IX): 3 to 9 nM
- Ki (hCA IX; [1]): 9 nM
- Ki (hCA I): 4 nM
- amount detected within the blood red cells (membrane penetration) (human red cells): detected only in very small amounts
- [sulfonamide] in red blood cells, EI (human red cells; 30 min): 1.0 µM
- [sulfonamide] in red blood cells, ES (human red cells; 30 min): 1.1 µM
- [sulfonamide] in red blood cells, HPLC (human red cells; 30 min): 1.0 µM
- [sulfonamide] in red blood cells, EI (human red cells; 60 min): 1.1 µM
- [sulfonamide] in red blood cells, ES (human red cells; 60 min): 1.2 µM
- [sulfonamide] in red blood cells, HPLC (human red cells; 60 min): 1.1 µM
- Ki (hCA II; [2]): 0.21 nM
- Ki (hCA II; Tables 1 and 3, read-out: KI against CA II): 0.2 to 1.61 nM
- Ki (bCA IV): 2.3 nM

Compound: Cc1cc(C)[n+](-c2ccc(S(=O)(=O)Nc3nnc(S(N)(=O)=O)s3)cc2)c(C)c1C [Compound 89, 1-N-[5-Sulfamoyl-1,3,4-thiadiazol-2-yl-(aminosulfonyl-4-phenyl)]-2,3,4,6-tetramethylpyridinium perchlorate]
- Ki (hCA IX): 3 to 9 nM
- Ki (hCA IX; [1]): 5 nM
- Ki (hCA I): 3 nM
- amount detected within the blood red cells (membrane penetration) (human red cells): detected only in very small amounts
- [sulfonamide] in red blood cells, EI (human red cells; 30 min): 0.5 µM
- [sulfonamide] in red blood cells, ES (human red cells; 30 min): 0.2 µM
- [sulfonamide] in red blood cells, HPLC (human red cells; 30 min): 0.3 µM
- [sulfonamide] in red blood cells, EI (human red cells; 60 min): 0.4 µM
- [sulfonamide] in red blood cells, ES (human red cells; 60 min): 0.6 µM
- [sulfonamide] in red blood cells, HPLC (human red cells; 60 min): 0.3 µM
- Ki (hCA II; [2]): 0.3 nM
- Ki (bCA IV): 2.4 nM
